Experimental findings from patent US5242938A, “Derivatives of virginiamycin M1” (Merck & Co., Inc., priority 1992, dated 1993) are described below.

Assay [1] concerns the target T1, CCK-B (guinea pig cortex) (Cavia porcellus, UniProt H0VZC5).
T1 construct: guinea pig cortical preparations; from tissue; host or cells: guinea pig brain cortex membranes
T1 sequence (H0VZC5 1-426): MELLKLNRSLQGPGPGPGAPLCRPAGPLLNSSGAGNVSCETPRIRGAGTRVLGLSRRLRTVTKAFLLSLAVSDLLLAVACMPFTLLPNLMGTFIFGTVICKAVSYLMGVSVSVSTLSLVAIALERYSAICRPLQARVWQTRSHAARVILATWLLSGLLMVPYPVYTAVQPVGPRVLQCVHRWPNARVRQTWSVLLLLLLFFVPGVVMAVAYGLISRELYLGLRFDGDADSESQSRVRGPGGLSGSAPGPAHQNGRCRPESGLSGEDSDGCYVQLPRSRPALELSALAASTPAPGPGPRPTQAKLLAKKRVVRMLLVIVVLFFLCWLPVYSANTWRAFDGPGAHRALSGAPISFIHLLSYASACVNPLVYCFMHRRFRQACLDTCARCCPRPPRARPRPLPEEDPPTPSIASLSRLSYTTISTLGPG
In words: [3H]L-365,260 CCK-B selective antagonist ligand binding, brain membranes. The following applies: for IC50: read-out: CCK binding inhibition - IC50, [3H]L-365,260. How it is done:
(§1) The resulting supernatant was re-spun at 20,000×g for 20 minutes. […] Incubations were for 40 minutes at 4° C. and were terminated by filtration and washing with ice cold 100 mM saline. […] Incubations were for 30 minutes at room temperature and were terminated by filtration over GF/C filters and washing with 100 mM NaCl.

Assay [2] deals with T2, CCK-A (rat pancreas) (Rattus norvegicus, UniProt P30551).
T2 construct: from tissue; host or cells: rat pancreas
T2 sequence (P30551 1-444): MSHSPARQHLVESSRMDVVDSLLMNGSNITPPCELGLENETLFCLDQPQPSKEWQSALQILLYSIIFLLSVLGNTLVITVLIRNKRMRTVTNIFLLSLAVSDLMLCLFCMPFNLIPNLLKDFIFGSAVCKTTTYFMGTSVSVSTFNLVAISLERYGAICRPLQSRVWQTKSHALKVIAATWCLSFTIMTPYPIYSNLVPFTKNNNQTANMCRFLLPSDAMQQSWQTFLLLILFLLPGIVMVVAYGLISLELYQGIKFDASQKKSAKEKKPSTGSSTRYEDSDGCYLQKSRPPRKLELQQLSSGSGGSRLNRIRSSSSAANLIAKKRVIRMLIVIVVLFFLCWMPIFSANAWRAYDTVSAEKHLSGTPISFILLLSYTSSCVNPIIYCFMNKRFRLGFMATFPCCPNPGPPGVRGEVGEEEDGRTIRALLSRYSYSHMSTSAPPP
In words: [3H]L-364,718 CCK-A selective antagonist ligand binding, pancreas. The following applies: read-out: CCK binding inhibition - IC50, [3H]L-364,718. How it is done:
as §1

For assay [3], the system named is Staphylococcus aureus (Mb 108, ATCC 6538P). In words: Agar diffusion disc assay, Sta 108. It counts as cell-based. The following applies: Staphylococcus aureus, ATCC6538P, 18 h. How it is done:
(§2) Cultures employed in evaluating antimicrobial activity included plant pathogens, human and animal opportunistic pathogens and selected laboratory strains having specific-antibiotic sensitivities or chromosomal or R-plasmid-mediated resistances. […] The agar diffusion MIC's were determined using the method described by Barry in Anitbiotics in Laboratory Medicine, 2nd Ed., Ed. V. Lorian, pp. 1-63, William & Wilkins, Baltimore, 1986. Each test compound was dissolved in methanol to a concentration of 1 mg/ml. Serial dilutions of these compounds were also made to determine an agar diffusion MIC. 20 μl of each dilution was pipetted on to 6 mm paper discs, air dried and placed onto the surface of an agar plate seeded with the appropriate bacteria (~10^6 cfu). Seeded agar plates were incubated overnight (~18 hours) at 25° C. Zone sizes were measured to the nearest mm. Each compound was tested in triplicate and the results shown represent the mean.
In general terms: Agar diffusion results depend on both activity and mobility in agar.

The target of assay [4] is T2, CCK-A (rat pancreas). In words: [125I]BHCCK-8 radioligand binding, rat pancreatic preparation. Conditions: read-out: CCK binding inhibition - IC50, [125I]BHCCK. How it is done:
as §1

Assay [5] deals with T1, CCK-B (guinea pig cortex). In words: [125I]BHCCK-8 radioligand binding, guinea pig cortical preparation. The following applies: read-out: CCK binding inhibition - IC50, [125I]BHCCK. As to the method: as §1
The test system of assay [6] is Escherichia coli (Mb 1418). In words: Agar diffusion disc assay, Coli 1418. It counts as cell-based. Conditions: Escherichia coli, 18 h. How it is done:
as §2

Assay [7] deals with Bacillus subtilis (Mb 964, ATCC 6633). In words: Agar diffusion disc assay, Subt 964. In kind it is cell-based. Conditions: Bacillus subtilis, ATCC6633, 18 h, read-out: Inhibition zone diameter, Subt 964. How it is done:
as §2

Assay [8] deals with Staphylococcus aureus (Mb 2983). In words: Agar diffusion disc assay, Sta 2983. It counts as cell-based. The following applies: Staphylococcus aureus, 18 h. As to the method:
as §2

Assay [9] concerns Bacillus sp. (Mb 633). In words: Agar diffusion disc assay, Baci 633. It counts as cell-based. The following applies: Bacillus, 18 h, @ 20 g/disc; read-out: Inhibition zone diameter, Baci 633. How it is done:
as §2

Assay [10] deals with Streptococcus faecium (Mb 2820). In words: Agar diffusion disc assay, Str 2820. Conditions: Enterococcus faecium, 18 h. It counts as cell-based. As to the method: as §2
In assay [11] the test system is Corynebacterium pseudodiphtheriticum (Mb 261, ATCC 9742). In words: Agar diffusion disc assay, Cory 261. The following applies: Corynebacterium pseudodiphtheriticum, ATCC9742, 18 h. It counts as cell-based. How it is done:
as §2

The test system of assay [12] is En terobacter aergenes (Mb 835). In words: Agar diffusion disc assay, Ent 835. The following applies: 18 h, read-out: Inhibition zone diameter, Ent 835. In kind it is cell-based. As to the method:
as §2

In assay [13] the test system is Streptococcus agalactiae (Mb 2875). In words: Agar diffusion disc assay, Str 2875. The following applies: Streptococcus agalactiae, 18 h. It counts as cell-based. How it is done:
as §2

Assay [14] deals with Salmonella gallinarum (Mb 1287). In words: Agar diffusion disc assay, Salm 1287. It counts as cell-based. The following applies: Salmonella enterica, GALLINARUM, 18 h, read-out: Inhibition zone diameter, Salm 1287. How it is done: as §2
The test system of assay [15] is Micrococcus luteus (Mb 1101, ATCC 9341). In words: Agar diffusion disc assay, Micr 1101. In kind it is cell-based. How it is done: as §2
Assay [16] has as its system Pseudomonas stutzeri (Mb 1231, ATCC 11607). In words: Agar diffusion disc assay, Pseu 1231. It counts as cell-based. Conditions: Stutzerimonas stutzeri, ATCC11607, 18 h. As to the method:
as §2

Structures are written as SMILES. ≈ marks a conversion by molar mass, not a printed value. Read-outs that look alike come from different tables or passages of the source.

As a reminder, the IC50 is the midpoint of a concentration-inhibition curve. What is called MIC is the lowest concentration that inhibits growth of the organism. As for `CC1=C\[C@@H](OC(=O)Cc2ccccc2)CC(=O)Cc2nc(co2)C(=O)N2CCC=C2C(=O)O[C@H](C(C)C)[C@H](C)/C=C/C(=O)NC\C=C\1` [Example 5], the “A.R. = agonist ratio = IC50([3H]L365,260)/IC50([125I]CCK)” value in [1] is ~ 10. Further, in [1] (beside IC50 >3.0), the “percentage in parentheses beside >3.0, [3H]L-365,260 (inhibition at top concentration, not defined)” value worked out at 40%. Moreover, the IC50 is above 3000 nM in assay [1], above 3000 nM in assay [2], above 3000 nM in [4] and 600 nM in [5]. Moreover, the zone of inhibition at 20 µg/disc in assay [3] (read-out: Inhibition zone diameter, Sta 108, @ 20 g/disc) is 0 mm; in assay [6] (read-out: Inhibition zone diameter, Coli 1418, @ 20 g/disc), 0 mm; in assay [7] it was 0 mm; in [8] (read-out: Inhibition zone diameter, Sta 2983, @ 20 g/disc), 0 mm; in [9], 0 mm; in assay [10] (read-out: Inhibition zone diameter, Str 2820, @ 20 g/disc), 0 mm. The zone of inhibition at 20 µg/disc was 0 mm in [11] (read-out: Inhibition zone diameter, Cory 261, @ 20 g/disc); 0 mm in [12]; 0 mm in assay [13] (read-out: Inhibition zone diameter, Str 2875, @ 20 g/disc); 0 mm in [14]; 12 mm in assay [15] (Micrococcus luteus, ATCC9341, 18 h, read-out: Inhibition zone diameter, Micr 1101, @ 20 g/disc); 13 mm in [15] (Micrococcus luteus, ATCC9341, 18 h, read-out: Mean of triplicate zone size versus Micrococcus luteus, 20.0 μg/disc; 25° C., ~18 hours). Also, the zone of inhibition at 20 µg/disc in [16] (read-out: Inhibition zone diameter, Pseu 1231, @ 20 g/disc) stood at 0 mm. Also, the MIC in assay [15] (Micrococcus luteus, ATCC9341, 18 h, read-out: Agar Diffusion MIC versus Micrococcus luteus) was determined as 0.41 µM (≈ 0.264 µg/mL). In assay [15] (Micrococcus luteus, ATCC9341, 18 h, read-out: Mean of triplicate zone size versus Micrococcus luteus, 5.00 μg/disc; 25° C., ~18 hours), the zone of inhibition at 5 µg/disc stood at 10 mm. In addition, in [15] (Micrococcus luteus, ATCC9341, 18 h, read-out: Mean of triplicate zone size versus Micrococcus luteus, 40.0 μg/disc; 25° C., ~18 hours), the zone of inhibition at 40 µg/disc came to 14 mm. In addition, the zone of inhibition at 80 µg/disc in [15] (Micrococcus luteus, ATCC9341, 18 h, read-out: Mean of triplicate zone size versus Micrococcus luteus, 80.0 μg/disc; 25° C., ~18 hours) amounted to 14 mm.

Regarding `CC1=C\[C@@H](OC(=O)c2ccccc2)CC(=O)Cc2nc(co2)C(=O)N2CCC=C2C(=O)O[C@H](C(C)C)[C@H](C)/C=C/C(=O)NC\C=C\1` [Example 6], the “A.R. = agonist ratio = IC50([3H]L365,260)/IC50([125I]CCK)” value in [1] was found to be 2. For the same compound, the IC50 in assay [1] is 190 nM; in assay [2], above 3000 nM; in assay [4], 2300 nM; in assay [5] it was 96 nM. Further, the zone of inhibition at 20 µg/disc in [3] (@ 20 g/disc, read-out: Inhibition zone diameter, Sta 108) worked out at 0 mm; in assay [6] (@ 20 g/disc, read-out: Inhibition zone diameter, Coli 1418), 0 mm; in assay [7] (@ 20 g/disc), 0 mm; in assay [8] (@ 20 g/disc, read-out: Inhibition zone diameter, Sta 2983), 0 mm; in assay [9] it was 0 mm; in [10] (@ 20 g/disc, read-out: Inhibition zone diameter, Str 2820) it was 0 mm. Also, the zone of inhibition at 20 µg/disc in [11] (@ 20 g/disc, read-out: Inhibition zone diameter, Cory 261) amounted to 0 mm; in assay [12] (@ 20 g/disc), 0 mm; in assay [13] (@ 20 g/disc, read-out: Inhibition zone diameter, Str 2875), 0 mm; in assay [14] (@ 20 g/disc) it was 0 mm; in assay [15] (Micrococcus luteus, ATCC9341, 18 h; @ 20 g/disc; read-out: Inhibition zone diameter, Micr 1101), 8 mm; in assay [15] (Micrococcus luteus, ATCC9341; 20.0 μg/disc; 25° C., ~18 hours; read-out: Mean of triplicate zone size versus Micrococcus luteus), 9 mm. In assay [16] (@ 20 g/disc, read-out: Inhibition zone diameter, Pseu 1231), the zone of inhibition at 20 µg/disc was determined as 0 mm. For the same compound, in [15] (Micrococcus luteus, ATCC9341, 18 h; read-out: Agar Diffusion MIC versus Micrococcus luteus), the MIC was found to be 0.003 µM (≈ 0.00189 µg/mL). The zone of inhibition at 10 µg/disc in assay [15] (Micrococcus luteus, ATCC9341; 10.0 μg/disc; 25° C., ~18 hours; read-out: Mean of triplicate zone size versus Micrococcus luteus) was 10 mm. Also, the zone of inhibition at 40 µg/disc in assay [15] (Micrococcus luteus, ATCC9341; 40.0 μg/disc; 25° C., ~18 hours; read-out: Mean of triplicate zone size versus Micrococcus luteus) was 10 mm. Further, the zone of inhibition at 80 µg/disc in [15] (Micrococcus luteus, ATCC9341; 80.0 μg/disc; 25° C., ~18 hours; read-out: Mean of triplicate zone size versus Micrococcus luteus) is 10 mm. The zone of inhibition at 160 µg/disc in assay [15] (Micrococcus luteus, ATCC9341; 160 μg/disc; 25° C., ~18 hours; read-out: Mean of triplicate zone size versus Micrococcus luteus) came to 11 mm.
